This is an account of results in patent publication US20220041681A1 (MEDIMMUNE LIMITED, priority 2016, published 2022).

Values joined by “and” are separate entries in the source; they are usually repeats but may differ in a detail not shown here. Identical values can stand only once. Numbered stars: 1 amine (or outer) side, 2 acyl side, 3 side chain; on linkers, the order of the positions; unused ones are H or OH. Side chains are listed from the residue outwards. Peptide text beside a SMILES is read from it. * marks the point of attachment. γGlu = O=C(O)[C@H](CCC(=O)[*:2])N[*:1]; Palmitoyl = CCCCCCCCCCCCCCCC(=O)*

The nature of data set [1]: frozen blank plasma from rat. Conditions: 37° C., up to 48 hours.
Data set [2] can be described thus: frozen blank plasma from mouse. The note with it: 37° C., up to 48 hours.
Data set [3] has as its target T1, Human GlucR (Homo sapiens, UniProt P47871).
T1 construct: expressed in transfected cells
Put plainly: cAMP assay in presence of serum albumin (assay 2), 4.4% human serum albumin. The data set is classed as cell-based. Conditions: relative potency GlucR / relative potency GLP1R vs native ligands. How it is done:
(§1) CHO cells with stable recombinant expression of the human, mouse or rat GlucR or GLP-t receptor were cultured in DMEM 10% FBS and geneticin (100 μg/mil). Cryopreserved cell stocks were prepared in 1× cell freezing medium-DMSO serum free (Sigma Aldrich) at 2×10^7/vial and stored at […]. […] Peptides were serially diluted in DMSO and then diluted 100 fold into DMEM containing serum albumin at stated final concentration. […] Cells were added to the assay plates and incubated for 30 min at room temperature. Following incubation the assay was stopped and cAMP levels measured using the HTRF® dynamic d2 cAMP assay kit available from CisBio Bioassays, as per the manufacturer's guidelines. Plates were read on Perkin Elmer ENVISION® fluorescence plate readers. Human and rat serum albumin were purchased from Sigma Aldrich and mouse serum albumin from Equitech Bio Ltd.
Background: cAMP levels reflect the balance of adenylyl cyclase and phosphodiesterase activity.

The target of a further data set is T2, Mouse GlucR (Mus musculus, UniProt Q61606).
T2 construct: expressed in transfected cells
Description: cAMP assay in presence of serum albumin (assay 2), 3.2% mouse serum albumin. The data set is classed as cell-based. Conditions: relative potencies vs native ligands. How it is done:
as §1

A further data set deals with T3, Human GIPr (Homo sapiens, UniProt P48546).
T3 sequence (P48546 22-466): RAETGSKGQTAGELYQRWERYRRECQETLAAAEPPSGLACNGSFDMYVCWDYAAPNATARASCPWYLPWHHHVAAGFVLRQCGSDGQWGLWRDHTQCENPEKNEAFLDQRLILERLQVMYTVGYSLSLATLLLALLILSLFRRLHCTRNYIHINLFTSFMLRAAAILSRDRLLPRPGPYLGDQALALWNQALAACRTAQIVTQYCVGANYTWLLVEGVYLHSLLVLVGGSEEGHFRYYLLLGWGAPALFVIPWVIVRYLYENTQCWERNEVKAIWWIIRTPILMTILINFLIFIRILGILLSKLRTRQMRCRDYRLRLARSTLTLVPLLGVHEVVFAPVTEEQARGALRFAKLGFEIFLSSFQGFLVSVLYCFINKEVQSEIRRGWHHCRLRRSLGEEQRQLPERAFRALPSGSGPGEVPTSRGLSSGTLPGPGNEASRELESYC
Put plainly: cAMP activity assay (assay 1) in assay medium. The data set is classed as cell-based. The note with it: Table 4, additional peptides, read-out: hGIPR EC50.

Data set [4] has as its target T1, Human GlucR. Description: cAMP activity assay (assay 1) in assay medium. The data set is classed as cell-based. The note with it: Table 4, additional peptides, read-out: hGlucR EC50.
Description: (§2) All sample dilutions were made in duplicate.
(§3) A frozen cryo-vial of cells expressing the receptor of interest was thawed rapidly in a water-bath, transferred to pre-warmed assay media and spun at 240×g for 5 minutes. Cells were re-suspended in assay media at an optimized concentration (e.g. hGCGR cells at 1×10^5 cells/ml, hGLP-1R and hGIPR cells at 0.5×10^5 cells/ml).
(§4) To this, 5 μL cell suspension was added and the plates incubated at room temperature for 30 minutes.
(§5) cAMP levels were measured using a commercially available cAMP dynamic 2 HTRF kit (Cisbio, Cat #62AM4PEJ), following the two step protocol as per manufacturer's recommendations. In brief; anti-cAMP cryptate (donor fluorophore) and cAMP-d2 (acceptor fluorophore) were made up separately by diluting each 120 in conjugate & lysis buffer provided in the kit. 5 μL anti-cAMP cryptate was added to all wells of the assay plate, and 5 μL cAMP-d2 added to all wells except non-specific binding (NSB) wells, to which conjugate and lysis buffer was added.
The next data set concerns the target Human GLP1R (Homo sapiens, UniProt P43220). Put plainly: cAMP activity assay (assay 1) in assay medium. The data set is classed as cell-based. The note with it: Table 4, additional peptides, read-out: hGLP1R EC50.

As a reminder, the EC50 is the concentration giving half of the maximal effect.

T1 sequence (P47871 26-477): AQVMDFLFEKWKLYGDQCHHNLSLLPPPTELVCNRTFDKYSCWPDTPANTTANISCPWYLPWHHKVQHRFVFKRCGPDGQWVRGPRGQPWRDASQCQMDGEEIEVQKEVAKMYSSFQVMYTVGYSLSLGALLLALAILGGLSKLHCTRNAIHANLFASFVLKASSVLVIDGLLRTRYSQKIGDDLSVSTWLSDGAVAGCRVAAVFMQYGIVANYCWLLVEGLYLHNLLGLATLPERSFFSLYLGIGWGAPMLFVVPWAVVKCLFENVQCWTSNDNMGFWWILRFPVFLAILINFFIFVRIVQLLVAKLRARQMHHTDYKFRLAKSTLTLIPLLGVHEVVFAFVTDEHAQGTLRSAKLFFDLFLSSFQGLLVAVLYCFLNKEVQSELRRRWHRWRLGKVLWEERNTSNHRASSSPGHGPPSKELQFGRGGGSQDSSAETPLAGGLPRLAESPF
Chain of Human GLP1R (P43220 24-463): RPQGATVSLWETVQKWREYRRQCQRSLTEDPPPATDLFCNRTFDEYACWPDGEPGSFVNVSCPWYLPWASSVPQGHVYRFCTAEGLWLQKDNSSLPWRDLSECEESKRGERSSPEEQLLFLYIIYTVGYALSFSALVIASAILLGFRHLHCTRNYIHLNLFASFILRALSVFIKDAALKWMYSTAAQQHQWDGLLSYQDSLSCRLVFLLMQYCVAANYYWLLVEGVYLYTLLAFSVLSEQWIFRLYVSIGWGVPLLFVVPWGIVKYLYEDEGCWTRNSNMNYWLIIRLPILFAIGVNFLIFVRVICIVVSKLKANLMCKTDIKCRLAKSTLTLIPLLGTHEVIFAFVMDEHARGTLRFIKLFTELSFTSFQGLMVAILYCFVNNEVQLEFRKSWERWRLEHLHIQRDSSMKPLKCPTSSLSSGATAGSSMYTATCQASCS
T2 sequence (Q61606 27-485): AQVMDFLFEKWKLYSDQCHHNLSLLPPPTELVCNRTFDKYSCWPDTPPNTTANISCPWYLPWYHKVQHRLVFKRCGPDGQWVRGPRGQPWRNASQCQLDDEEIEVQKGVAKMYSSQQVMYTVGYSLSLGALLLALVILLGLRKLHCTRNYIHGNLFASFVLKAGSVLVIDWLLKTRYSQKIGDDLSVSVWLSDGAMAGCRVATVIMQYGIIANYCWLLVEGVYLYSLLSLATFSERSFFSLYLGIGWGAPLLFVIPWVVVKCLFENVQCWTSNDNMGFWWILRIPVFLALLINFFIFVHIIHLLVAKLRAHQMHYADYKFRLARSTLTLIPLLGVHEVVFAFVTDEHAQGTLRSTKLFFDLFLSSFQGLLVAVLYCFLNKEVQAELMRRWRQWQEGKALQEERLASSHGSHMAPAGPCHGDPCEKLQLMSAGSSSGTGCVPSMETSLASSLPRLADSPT
Description for Human GIPr: as §2, §3, §4, §5
Description for Human GLP1R: as §2, §3, §4, §5

Consider “HSQGTFTSDYSKXLDSERARDFVAWLVAGG-amide X13 = K(gE-palm)”, for which the fragment found result in data set [1] is “DPP IV-cleavage product, 2% at 24 h”; in data set [2], “DPP IV-cleavage product, 14% at 24 h and +1 DPP cleaved product, 5% at 24 h”. For `CCCCCCCCCCCCCCCC(=O)N[C@@H](CCC(=O)NCCCC[C@H](NC(=O)[C@H](CO)NC(=O)[C@H](CC(=O)O)NC(=O)[C@H](CC(C)C)NC(=O)[C@H](Cc1ccc(O)cc1)NC(=O)[C@H](CCCCN)NC(=O)[C@H](CO)NC(=O)[C@H](Cc1ccc(O)cc1)NC(=O)[C@H](CC(=O)O)NC(=O)[C@H](CO)NC(=O)[C@@H](NC(=O)[C@H](Cc1ccccc1)NC(=O)[C@@H](NC(=O)CNC(=O)[C@H](CCC(N)=O)NC(=O)CNC(=O)[C@@H](N)Cc1c[nH]cn1)[C@@H](C)O)[C@@H](C)O)C(=O)N[C@@H](CCCNC(=N)N)C(=O)N[C@@H](C)C(=O)N[C@@H](CCC(N)=O)C(=O)N[C@@H](CC(=O)O)C(=O)N[C@@H](Cc1ccccc1)C(=O)N[C@H](C(=O)N[C@@H](CCC(N)=O)C(=O)N[C@@H](Cc1c[nH]c2ccccc12)C(=O)N[C@@H](CC(C)C)C(=O)N[C@H](C(=O)N[C@@H](C)C(=O)NCC(=O)NCC(N)=O)C(C)C)C(C)C)C(=O)O` [Peptide G380], the “Human GlucR/GLP1R Ratio” value on Human GlucR [3] is 0.013. The “Mouse GlucR/GLP1R Ratio” value at Mouse GlucR was 0.006.

Take `CCCCCCCCCCCCCCCC(=O)N[C@@H](CCC(=O)NCCCC[C@H](NC(=O)[C@H](CO)NC(=O)[C@H](CC(=O)O)NC(=O)[C@H](CC(C)C)NC(=O)[C@H](Cc1ccc(O)cc1)NC(=O)[C@H](CCCCN)NC(=O)[C@H](CO)NC(=O)[C@H](Cc1ccc(O)cc1)NC(=O)[C@H](CC(=O)O)NC(=O)[C@H](CO)NC(=O)[C@@H](NC(=O)[C@H](Cc1ccccc1)NC(=O)[C@@H](NC(=O)CNC(=O)[C@H](CCC(N)=O)NC(=O)CNC(=O)[C@@H](N)Cc1c[nH]cn1)[C@@H](C)O)[C@@H](C)O)C(=O)N[C@@H](CCCNC(=N)N)C(=O)N[C@@H](C)C(=O)N[C@@H](CCCNC(=N)N)C(=O)N[C@@H](CC(=O)O)C(=O)N[C@@H](Cc1ccccc1)C(=O)N[C@H](C(=O)N[C@@H](CCC(=O)O)C(=O)N[C@@H](Cc1c[nH]c2ccccc12)C(=O)N[C@@H](CC(C)C)C(=O)N[C@H](C(=O)N[C@@H](C)C(=O)NCC(=O)NCC(N)=O)C(C)C)C(C)C)C(=O)O` [g660] (H-HGQGTFTSDYSKYLDSK([γGlu-Palmitoyl])RARDFVEWLVAGG-NH2; N-terminus assumed): the EC50 at Human GIPr is 3320 pM. For `CCCCCCCCCCCCCCCC(=O)N[C@@H](CCC(=O)NCCCC[C@H](NC(=O)[C@H](CCCCN)NC(=O)[C@H](CO)NC(=O)[C@H](Cc1ccc(O)cc1)NC(=O)[C@H](CC(=O)O)NC(=O)[C@H](CO)NC(=O)[C@@H](NC(=O)[C@H](Cc1ccccc1)NC(=O)[C@@H](NC(=O)CNC(=O)[C@H](CCC(N)=O)NC(=O)C(C)(C)NC(=O)[C@@H](N)Cc1c[nH]cn1)[C@@H](C)O)[C@@H](C)O)C(=O)N[C@@H](CC(C)C)C(=O)N[C@@H](CC(=O)O)C(=O)N[C@@H](CO)C(=O)N[C@@H](CCC(=O)O)C(=O)N[C@@H](CCCNC(=N)N)C(=O)N[C@@H](C)C(=O)N[C@@H](CCCNC(=N)N)C(=O)N[C@@H](CC(=O)O)C(=O)N[C@@H](Cc1ccccc1)C(=O)N[C@H](C(=O)N[C@@H](C)C(=O)N[C@@H](Cc1c[nH]c2ccccc12)C(=O)N[C@@H](CC(C)C)C(=O)N[C@H](C(=O)N[C@@H](C)C(=O)NCC(=O)NCC(N)=O)C(C)C)C(C)C)C(=O)O` [g87 ?], the EC50 at Human GlucR [4] amounted to 129 pM; on Human GLP1R, 29.8 pM. In the case of “HSQGTFTSDXSEYLDSERARDFVAWLEAGG-amide X10 = K(gE-palm)”, the fragment found entry in data set [1] is “DPP cleaved product, minor”; in data set [2] it was “DPP cleaved product, minor”.

Consider `CCCCCCCCCCCCCCCC(=O)N[C@@H](CCC(=O)NCCCC[C@H](NC(=O)[C@H](Cc1ccc(O)cc1)NC(=O)[C@H](CCCCN)NC(=O)[C@H](CO)NC(=O)[C@H](Cc1ccc(O)cc1)NC(=O)[C@H](CC(=O)O)NC(=O)[C@H](CO)NC(=O)[C@@H](NC(=O)[C@H](Cc1ccccc1)NC(=O)[C@@H](NC(=O)CNC(=O)[C@H](CCC(N)=O)NC(=O)[C@H](CO)NC(=O)[C@@H](N)Cc1c[nH]cn1)[C@@H](C)O)[C@@H](C)O)C(=O)N[C@@H](CC(=O)O)C(=O)N[C@@H](CO)C(=O)N[C@@H](CCCNC(=N)N)C(=O)N[C@@H](CCCNC(=N)N)C(=O)N[C@@H](C)C(=O)N[C@@H](CCC(N)=O)C(=O)N[C@@H](CC(=O)O)C(=O)N[C@@H](Cc1ccccc1)C(=O)N[C@H](C(=O)N[C@@H](CCC(N)=O)C(=O)N[C@@H](Cc1c[nH]c2ccccc12)C(=O)N[C@@H](CC(C)C)C(=O)N[C@@H](CCC(=O)O)C(=O)N[C@@H](C)C(=O)NCC(=O)NCC(N)=O)C(C)C)C(=O)O` [g601] (H-HSQGTFTSDYSKYK([γGlu-Palmitoyl])DSRRAQDFVQWLEAGG-NH2; N-terminus assumed), for which the EC50 on Human GIPr came to 74.1 pM. As for “HSQGTFTSDXSRYLDSRSARDFVAWLEAGG-amide X10 = K(gE-palm)”, the fragment found result in data set [1] is recorded as “DPP IV-cleavage product, 3% at 24 h”.

Regarding `CC(C)C[C@H](NC(=O)[C@H](Cc1ccc(O)cc1)NC(=O)[C@H](CCCCN)NC(=O)[C@H](CO)NC(=O)[C@H](Cc1ccc(O)cc1)NC(=O)[C@H](CC(=O)O)NC(=O)[C@H](CO)NC(=O)[C@@H](NC(=O)[C@H](Cc1ccccc1)NC(=O)[C@@H](NC(=O)CNC(=O)[C@H](CCC(N)=O)NC(=O)[C@H](CO)NC(=O)[C@@H](N)Cc1c[nH]cn1)[C@@H](C)O)[C@@H](C)O)C(=O)N[C@@H](CC(=O)O)C(=O)N[C@@H](CO)C(=O)N[C@@H](CCCNC(=N)N)C(=O)N[C@@H](CCCNC(=N)N)C(=O)N[C@@H](C)C(=O)N[C@@H](CCC(N)=O)C(=O)N[C@@H](CC(=O)O)C(=O)N[C@@H](Cc1ccccc1)C(=O)N[C@H](C(=O)N[C@@H](CCC(N)=O)C(=O)N[C@@H](Cc1c[nH]c2ccccc12)C(=O)N[C@@H](CC(C)C)C(=O)N[C@H](C(=O)N[C@@H](C)C(=O)NCC(=O)NCC(=O)NCC(=O)NCC(=O)NCC(=O)NCC(=O)N[C@@H](CCCCN)C(N)=O)C(C)C)C(C)C` [g32 ?], the EC50 on Human GlucR [4] is 10.3 pM; at Human GLP1R it was 26.1 pM. Consider `CCCCCCCCCCCCCCCC(=O)N[C@@H](CCC(=O)NCCCC[C@H](NC(=O)[C@H](CO)NC(=O)[C@H](CC(=O)O)NC(=O)[C@H](CC(C)C)NC(=O)[C@H](Cc1ccc(O)cc1)NC(=O)[C@H](CCCCN)NC(=O)[C@H](CO)NC(=O)[C@H](Cc1ccc(O)cc1)NC(=O)[C@H](CC(=O)O)NC(=O)[C@H](CO)NC(=O)[C@@H](NC(=O)[C@H](Cc1ccccc1)NC(=O)[C@@H](NC(=O)CNC(=O)[C@H](CCC(N)=O)NC(=O)CNC(=O)[C@@H](N)Cc1c[nH]cn1)[C@@H](C)O)[C@@H](C)O)C(=O)N[C@@H](CCCNC(=N)N)C(=O)N[C@@H](C)C(=O)N[C@@H](CCC(N)=O)C(=O)N[C@@H](CC(=O)O)C(=O)N[C@@H](Cc1ccccc1)C(=O)N[C@H](C(=O)N[C@@H](CCC(N)=O)C(=O)N[C@@H](Cc1c[nH]c2ccccc12)C(=O)N[C@@H](CC(C)C)C(=O)N[C@H](C(=O)N[C@@H](C)C(=O)NCC(=O)NCC(N)=O)C(C)C)C(C)C)C(=O)O` [g3 ? 0], for which the 50% effective concentration (EC50) at Human GlucR [4] stood at 362 pM; at Human GLP1R, 100 pM.
